# Assay results from patent US7125911B2, “Autonomic nerve regulating agent” (Kao Corporation, priority 2000, dated 2006).
# Experiments:
# [1] = system: insomniac women in their fifties; experiment: Sleep in a room with furnishings and bedding coated with cedrol, actigram assessment (Example 7); format: in vivo, human; conditions: furnishings and bedding coated with cedrol 1.5 μg/cm^2, 15th to 21st days, vs control week; p<0.01
# Procedure: The subjects were twenty insomniac women in their fifties, while sleep was assessed from 3 hours before bed until wakening for 4 weeks in a room (sleeping room) at a temperature of 23° C. and a humidity of 50%. The first week served as a control. For the last 3 weeks, the test was conducted by replacing the curtains, wall paper, flooring, pillows, sheets, and bedding with those which had been coated with cedral (1.5 μg/cm^2).
# The subjects ware actigrams for 4 continuous weeks on the opposite of their leading arm to allow assessment of the sleeping efficiency and intermittent awakening. Analyzed data for the cedrol coatings were from the 15th to 21st days following application.
# Statistical analysis of the measurement results was the same as in Example 5.
# [2] = system: women in their twenties suffering from poor sleep; experiment: Sleep monitoring with cedrol vaporized in the room from bedtime until waking (Example 3); format: in vivo, human; conditions: significance 5%
# Procedure: The subjects were ten women in their twenties suffering from poor sleep. ECG (chest V5 lead), brain waves (C3, O1 in the international 10–20 method), respiration (impedance method: abdomen and chest), superficial electromyogram (bipolar lead of left and right mentalis muscles), and ocular movement (bipolar lead without horizontally linking left and right eye-sockets) were monitored from the time the subjects went to bed until they woke in a 40 m^2 room. The cedrol was administered by placing Petri dishes filled with cedrol on 95° C. hot plates so that approximately 100 mg was vaporized per hour (about 1 ppb/hr), from the time subjects went to bed until they woke. Measurements were taken for 7 days. No administration took place on the first two days, in order to allow subjects to become acclimated to the measuring instruments and environment (control). On the third day, administration was managed without anything placed on the hot plates (placebo). After 3 days, cedrol was administered on the 7th day.
# The subjects were interviewed about their condition on waking using a questionnaire based on POMS (profile of mood states) to assess mood. The changes in the parameters measured during the administration of cedrol and placebo treatment were compared.
# Awakening and sleep stages were determined in accordance with international standards for determining sleep stages (Sleep Brain Wave Atlas, pp. 3–9, Ishiyaku Shuppan KK, published September, 1971, the relevant portions thereof which describe sleep analysis and standards are incorporated herein by reference). Frequency analysis of R—R interval fluctuations and statistical analysis of the measurement results were done in the same manner as in Example 1.
# [3] = system: women in their twenties complaining of fatigue (sympathetic overactivity); experiment: Inhalation of cedrol for 30 seconds with ECG, blood pressure and respiration monitoring (Example 1); format: in vivo, human; conditions: after vs before inhalation, 10 wt % in dipropylene glycol, significance 5%
# Procedure: The subjects were ten women in their twenties complaining of fatigue (sympathetic overactivity), who were asked to inhale, for 30 seconds, cedrol dissolved in dipropylene glycol (10 wt % concentration), while ECG at rest (chest V5 lead), blood pressure (tonometry), and respiration (pulmonary volume instantaneously measured by respiratory rate sensor) were monitored. The changes in parameters before and after measurement were compared. Frequency analysis of R—R interval fluctuations was performed for low frequency components integrating amplitudes 0.02 to 0.12 Hz (sum of low frequency: Lsum) and high frequency components integrating amplitudes 0.12 to 2.00 Hz (sum of high frequency: Hsum) using the rapid Fourier transform. As used here, the Hsum is an indicator of parasympathetic nervous activity, and the Lsum/Hsum is an indicator of sympathetic nervous activity.
# The measurement results were statistically analyzed by Welch's t-test or Student's t-test based on the F test.
# [4] = Vapor pressure of purified cedrol by static method and gas flow method; format: physicochemical; conditions: ambient temperature (unheated)
# Procedure: The vapor pressure of purified cedrol (molecular weight 222 g·mol^−1) used in the following examples was determined by a static method and a gas flow method (temperature: 22, 50, and 75° C. for solids; 100 and 125° C. for liquids).
# In the static method, samples were taken from hermetically sealed containers, a constant temperature was established, and the equilibrium vapor pressure at that temperature was directly measured using a pressure gauge (OECD Test Guidelines 104: Static Measurement of Vapor Pressure).
# In the gas flow method, carrier gas (nitrogen gas) was allowed to flow so as to come into contact with a solid or liquid sample at a certain temperature to saturate the sample vapor, and the vapor density (vaporization quantity/volume) was measured so as to determine the vapor pressure hypothetically in accordance with ideal gas principles. The vapor density herein referred to is calculated from the sample vaporization rate (rate of loss) determined using an electrical balance, and the carrier gas flow rate determined using a flow rate gauge. However, since the sample vapor saturation is usually incomplete, the vapor density level is dependent on flow rate, so the vapor density was measured at varying flow rates for extrapolation to a zero flow rate to determine the saturated vapor density. […]
# [5] = system: insomniac women in their twenties (parasympathetic predominance to excess); experiment: Inhalation of cedrol for 30 seconds with ECG, blood pressure and respiration monitoring (Example 2); format: in vivo, human; conditions: after vs before inhalation, insomniac subjects
# From the text: The subjects were ten insomniac women in their twenties (under considerable pressure to get to sleep, with parasympathetic predominance to excess), who were asked to inhale, for 30 seconds, cedrol dissolved in dipropylene glycol (10 wt % concentration), while ECG at rest (chest V5 lead), blood pressure (tonometry), and respiration (pulmonary volume instantaneously measured by respiratory rate sensor), and skin blood flow of forehead (measured by laser Doppler methods) were monitored. The changes in parameters before and after measurement were compared. Frequency analysis of R—R interval fluctuations and statistical analysis of the measurement results were done in the same manner as in Example 1.
# [6] = 7th day (cedrol) vs before administration and 3rd day (placebo treatment)
# [7] = cedrol approximately 100 mg vaporized per hour vs placebo treatment
# [8] = within physiologically normal range, significance 5%
smiles,measurement,setting,value
C[C@@H]1CC[C@H]2C(C)(C)[C@H]3C[C@@]12CC[C@@]3(C)O [cedrol],intermittent awakening,[1],meaningfully fewer
same,sleeping efficiency,[1],meaningfully better
same,POMS fatigue,[2]; [6],meaningful (5%) improvement
same,POMS tension,[2]; [6],meaningful (5%) improvement
same,Hsum during non-REM sleep,[2]; cedrol approximately 100 mg vaporized per hour (about 1 ppb/hr) vs placebo treatment,meaningfully increased
same,cumulative incidence of stages 3 and 4 of sleep,[2]; [7],meaningfully greater
same,respiratory rate (RR) during non-REM sleep,[2]; [7],meaningfully lower
same,ECG R-R interval,[3],meaningfully longer
same,Hsum (parasympathetic nervous activity indicator),[3],meaningfully greater
same,Lsum/Hsum (sympathetic nervous activity indicator),[3],meaningfully lower
same,diastolic blood pressure (DBP),[3],meaningfully lower
same,respiratory rate (RR),[3],meaningfully lower
same,systolic blood pressure (SBP),[3],meaningfully lower
same,vapor pressure (vaporizability),[4],can be vaporized at ambient temperature
same,ECG R-R interval,[5],no meaningful change
same,Hsum,[5],tended to be lower
same,Lsum/Hsum,[5],tended to be higher
same,respiratory rate (RR),[5],no meaningful difference
same,diastolic blood pressure (DBP),[5]; [8],meaningfully higher
same,systolic blood pressure (SBP),[5]; [8],meaningfully higher
